From ChEMBL document CHEMBL1614632, “Trend analysis of a database of intravenous pharmacokinetic parameters in humans for 670 drug compounds” (Drug Metab Dispos, 2008)

How the values were obtained:
[1] = human, in vivo, iv
[2] = human, in vivo, iv; remark: listed apart in the source
[3] = human, in vivo, iv; remark: listed apart in the source
[4] = human, in vivo, iv; remark: listed apart in the source
clinical [5] = settings: human, in vivo, iv
clinical [6] = settings: human, in vivo, iv, t1/2
clinical [7] = settings: human, in vivo, iv; remark: listed apart in the source
[8] = human, in vivo, iv; remark: listed apart in the source
clinical [9] = settings: human, in vivo, iv, CL
clinical [10] = settings: human, in vivo, iv, Vdss

Row | Compound | Vdss [1] | CL [2] | MRT [3] | t1/2 [4] | fraction unbound (clinical [5]) | half-life (clinical [6]) | MRT (clinical [7]) | fu [8] | clearance (clinical [9]) | Vd (clinical [10])
1 | COC(=O)C(c1ccccc1)C1CCCCN1 (stereo not given) [METHYLPHENIDATE] | 2.2 L/kg | 0.55 mL/min/kg | 4.5 h | 4.8 h | 0.85 |  |  |  |  | 
2 | O=[N+]([O-])O[C@@H]1CO[C@H]2[C@@H]1OC[C@@H]2O (stereo in doubt; form 1) [ISOSORBIDE MONONITRATE] | 0.86 L/kg | 6.2 mL/min/kg | 2.3 h | 1.9 h |  |  |  |  |  | 
3 | CCCCS(=O)(=O)N[C@@H](Cc1ccc(OCCCCC2CCNCC2)cc1)C(=O)O [TIROFIBAN] | 0.99 L/kg |  | 1.8 h |  | 0.36 | 1.6 h |  |  |  | 
4 | C[C@H]1[C@H](OC(=O)CCC(=O)O)O[C@@H]2O[C@@]3(C)CC[C@H]4[C@H](C)CC[C@@H]1[C@@]24OO3 [ARTESUNATE] |  | 1070 mL/min/kg |  |  | 0.25 | 0.22 h | 0.32 h |  |  | 
5 | CCC1=C[C@@H]2CN(C1)Cc1c([nH]c3ccccc13)[C@@](C(=O)OC)(c1cc3c(cc1OC)N(C)[C@H]1[C@@](O)(C(=O)OC)[C@H](OC(C)=O)[C@]4(CC)C=CCN5CC[C@]31[C@@H]54)C2 (stereo in doubt; form 2) [VINORELBINE] | 23 L/kg | 20 mL/min/kg | 18 h | 26 h | 0.87 |  |  |  |  | 
6 | GADOVERSETAMIDE | 0.16 L/kg | 1.2 mL/min/kg | 2.2 h | 1.7 h |  |  |  | 1 |  | 
7 | CARBOPLATIN | 0.26 L/kg | 1.5 mL/min/kg | 3 h | 2 h |  |  |  | 1 |  | 
8 | C[C@@H](O)[C@H]1C(=O)N2C(C(=O)O)=C(S[C@@H]3CN[C@H](C(=O)N(C)C)C3)[C@H](C)[C@H]12 [MEROPENEM] |  |  | 1.3 h |  | 0.87 | 1 h |  |  | 3.9 mL/min/kg | 
9 | O=C(CCCN1CCC(O)(c2ccc(Cl)cc2)CC1)c1ccc(F)cc1 [HALOPERIDOL] |  |  |  |  |  | 35 h | 36 h | 0.08 |  | 17 L/kg
10 | O=[N+]([O-])O[C@@H]1CO[C@H]2[C@@H]1OC[C@@H]2O (stereo in doubt; form 2) [ISOSORBIDE MONONITRATE] |  | 2 mL/min/kg | 5.8 h | 4.1 h |  |  |  |  |  | 0.7 L/kg
11 | GENTAMICIN |  |  | 5.5 h | 4.7 h |  |  |  | 1 |  | 
12 | O=P1(N(CCCl)CCCl)NCCCO1 (stereo not given) [CYCLOPHOSPHAMIDE ANHYDROUS] |  | 1.1 mL/min/kg |  | 8 h |  |  | 11 h |  |  | 
